Laboratory results as given in PubChem BioAssay AID504568 (NMMLSC, 2011).
Active and inactive are the calls of the source.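 The calls were made as follows: active = binding readouts below 60% of the midpoint between blocked and unblocked controls, with summed weighted score above 1; inactive = the rest.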

Test system: 2C TCR mouse CD8+ T cells, vesicle binding, flow cytometry
Assay: inhibitors of CD8+ T cell LFA-1/ICAM-1 adhesion – powder samples, single concentration, mouse 2C TCR, flow cytometry, confirmation (AID 504568);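 also: lower values mean less vesicle binding and point to an inhibitor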;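 as to double-positive events (T cell-vesicle binding): the gate for binding is set so anti-LFA-1 blocked control wells show 10% double positives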
Conditions: stronger effect = lower value; for mean fluorescence percent response: measured here: CD8+ cell vesicle fluorescence mean

| SMILES | double-positive events (T cell-vesicle binding) | mean fluorescence percent response |
| --- | --- | --- |
| O=C(O)C1CCC(Cn2c(SCc3cc(=O)n4cc(Cl)ccc4n3)nc3ccsc3c2=O)CC1 (configuration not stated) | 19.5% | 128% |
| Cc1ccc(S(=O)(=O)N2CCN(S(=O)(=O)N(C)C)CC2)c(C)c1 | 24.7% | 139% |
| CC(=O)Nc1ccc(S(=O)(=O)NC2CCSc3ccccc32)cc1 (configuration not stated) | 23.2% (inactive) | 120% |
| COCc1c(C(=O)Nc2cccc(S(=O)(=O)N3CCCCC3)c2)oc2ccccc12 | 14.8% | 104% |
| CCOC(=O)c1c(C=O)c2ccccc2n1CC | 20.5% | 148% |
| COc1ccc(/C=C2\SC(=S)N(CCC(=O)N3CCOCC3)C2=O)cc1 | 22.1% | 102% |
| COc1ccccc1NS(=O)(=O)c1cc(NC(=O)CNC(=O)c2cc(C)cc(C)c2)ccc1C | 27.3% (inactive) | 153% |
| CN1CCN(S(=O)(=O)c2cccc(C(=O)Nc3cc(C(F)(F)F)ccc3N3CCCCC3)c2)CC1 | 21.7% | 105% |
| O=C1CC(c2nc3ccccc3[nH]2)CN1Cc1ccccc1 (configuration not stated) | 22.6% | 124% |
| Cc1cc(Cl)c(OCCCSc2nc(C)cc(=O)[nH]2)c(Br)c1 | 25% | 126% |
| O=C(Cn1cc(C(F)(F)F)cc(Cl)c1=O)NCCc1ccc(Cl)cc1Cl | 26.4% (inactive) | 136% |
